≈ marks a conversion by molar mass, not a printed value. Entries after “also recorded” stand apart in the source; their conditions may differ.
Columns and labels:
[1] = test system: caffeine-induced wakefulness mice; assay: Caffeine-induced wakefulness mouse model: sleep latency, sleep duration, number falling asleep; type: in vivo
Method: Animals and Experimental design: Seven male BALB/c mice per treatment arm (age: 8 weeks, weight: […]) were housed in a controlled environment with a 12:12-h light-dark cycle at 22° C. and were provided with mice chow and water ad libitum. All experiments were conducted under the National Institutes of Health's Guidelines for the Care and Use of Laboratory Animals and approved by the Ethics Committee of the Medipol University.
Drugs and materials: Study product was provided by Nutrition21 LLC (Mg-Theanate #1=lot AA209-122-20, Mg-Theanate #2=lot BLS-DN 13). […] The concentration of each drug solution was adjusted so that the volume injected was constant at 1.0 ml/kg BW. All drug solutions were prepared fresh daily, and were administered intraperitoneally (i.p.). […]

[2] = test system: brain waves (spike amplitude / spike frequency); assay: Electrocorticography (ECoG) of brain electrical activity in caffeine-induced wakefulness mice; type: in vivo; conditions: caffeine-induced wake mouse, electrical activity over 120 minutes, result in words
Method: Animals were anesthetized with urethane ([…], i.p., Sigma U2500). Body temperature was maintained between 36.5 and 37° C. with homeothermic blanket. Mice were stabilized under a stereotaxic frame (World Precision Instruments, Berlin; Germany) and an incision was made on the skin along the anterior/posterior line of the skull. The left […] was removed gently with a dental drill (Marothon-3; Korea). Two Ag—AgCl sphere electrodes were placed over the left hemisphere with the reference electrode attached on the pinna.
Brains were rapidly removed, frozen on dry ice and stored at −80° C. until analyses could be performed.

[3] = test system: brain serotonin, dopamine and melatonin; assay: Brain neurotransmitter levels by ELISA in caffeine-induced wakefulness mice; type: in vivo; conditions: for Neurotransmitter levels (brain serotonin, dopamine, and melatonin): caffeine-induced wake mouse, result in words
[4] = test system: MDA, SOD, CAT, GSHPx; assay: Brain antioxidant status in caffeine-induced wakefulness mice; type: in vivo
Method: Animals were anesthetized with urethane ([…], i.p., Sigma U2500). Body temperature was maintained between 36.5 and 37° C. with homeothermic blanket. Mice were stabilized under a stereotaxic frame (World Precision Instruments, Berlin; Germany) and an incision was made on the skin along the anterior/posterior line of the skull. The left […] was removed gently with a dental drill (Marothon-3; Korea). Two Ag-AgCl sphere electrodes were placed over the left hemisphere with the reference electrode attached on the pinna. […] Brains were rapidly removed, frozen on dry ice and stored at -80° C. until analyses could be performed. Biochemical and Oxidative Stress Markers-Serum melatonin, serotonin, and dopamine were measured using ELISA kits. Brain levels of malondialdehyde (MDA) were measured by HPLC. Brain activities of superoxide dismutase (SOD), catalase (CAT) and glutathione peroxidase (GSHPx) were measured using ELISA kits for each analyte.

[5] = test system: pentobarbital-induced sleep; assay: Pentobarbital-induced sleep test mouse model; type: in vivo, mice; conditions: for Duration of sleep / Sleep latency period: pentobarbital 42 mg/kg, test article 20 mg theanine/kg per os 45 min before
Method: Subsequently, pentobarbital was administered intraperitoneally to induce a hypnotic state that promoted sleep. The effects on sleep of the test agents were monitored.
Pentobarbital-induced sleep was performed according to published methods with slight modifications. Mice were fasted for 24 h prior to the experiment. Each test article was dissolved or suspended in physiological saline and then was administered per os. The groups were administered doses of 20 mg/kg theanine, Mg-theanate #1 (20 mg theanine/kg), and Mg-theanate #2 (20 mg theanine/kg), respectively. Forty-five minutes later, a hypnotic dose of pentobarbital (42 mg/kg) was injected into the left side of the abdomen. After injection, the mice were placed in individual cages and subjected to measurements of sleep latency and duration. Sleep latency was defined as the period between pentobarbital injection and the loss of righting reflex (sleep onset), and sleep duration denoted the time elapsed between loss of the righting reflex and recovery.
Statistical Analyses—Data are shown as mean±SEM. Sample size was calculated based on a power of 85% and a p-value of 0.05. Given that assumption, a sample size of seven per treatment was calculated. The data were analyzed using the GLM procedure of SAS (SAS Institute: SAS User's Guide: Statistics). The treatments were compared using ANOVA and Student's unpaired t-test; P<0.05 was considered statistically significant.

[6] = Nathan [17]; cited from earlier work
[7] = test system: sleep cycle; conditions: Jang et al. [11], cited from earlier work
[8] = test system: stimulatory action of caffeine; conditions: rats, EEG, Kakuda et al. [13]; cited from earlier work
[9] = test system: Bax, Bcl-2, Caspase-3, eNOS, iNOS; assay: Western blot of brain cell survival indicators in caffeine-induced wakefulness mice; conditions: caffeine-induced wake mouse, result in words
[10] = Solubility in water; type: physicochemical
[11] = Storage stability; type: physicochemical; conditions: temperature range, low relative humidity; result in words; listed as Magnesium di-L-theanate compositions
[12] = Observations after administration in the animal studies of Example 5 (absorption, side effects); type: in vivo, mice
Source text: Neither component in magnesium […] compositions of the invention (i.e., magnesium or L-theanine) has been reported to cause addiction.

[13] = test system: GABAA-R2, GABAB-R1, GABAB-R2, 5-HT1A, GluA1, GluN1, GluN2A; assay: Western blot of GABA and other neurotransmitter receptors in caffeine-induced wakefulness mice; conditions: caffeine-induced wake mouse; result in words; listed as magnesium di-L-theanate compositions
[14] = caffeine-induced wake mouse, caffeine alone or + test article (20 mg theanine/kg)
[15] = brain, caffeine followed by saline (C) or test article (20 mg theanine/kg), ELISA, means and standard deviations
[16] = caffeine followed by saline (C) or test article (20 mg theanine/kg), means and standard deviations
[17] = result in words, listed as L-theanine
[18] = caffeine-induced wake mouse model, 20 mg/kg
[19] = caffeine-induced awake mouse model, result in words
[20] = listed as magnesium di-L-theanate compositions
[21] = caffeine-induced wake mouse, result in words, listed as magnesium di-L-theanate compositions
[22] = result in words, listed as magnesium di-L-theanate composition
[23] = result in words, listed as magnesium di-L-theanate compositions

Structure (SMILES): CCNC(=O)CCC(N)C(=O)O (stereo not drawn) [CT, 2-amino-4-(ethylcarbamoyl)-butyric acid, reference compound]
- Number of animals falling asleep (share of the group that fell asleep) [1, 14]: + Theanine: 62.5% of the group fell asleep
- Sleep latency period [1, 14]: + Theanine: The sleep latency period increased from about 1 to about 1.5 minute, a minutes
- Amplitude of brain waves ([2]; listed as Theanine): + Theanine: Within about 30 minutes, the amplitude of brain waves increased significantly
- Spike frequency of electrical activity in the brain ([2]; listed as Theanine): significantly reduced, as compared to caffeine-treated animals.
- Dopamine [3, 15]: 779.00 + 77.73c ng/g
- Melatonin [3, 15]: 0.69 + 0.08c pg/g
- Serotonin [3, 15]: 655.43 + 35.46c ng/g
- CAT [4, 16]: 29.51 + 2.06c IU/mg protein
- GSHPx [4, 16]: 15.56 + 7.94ab IU/mg protein
- MDA [4, 16]: 2.46 + 0.17b nmol/g
- SOD [4, 16]: 117.14 + 13.89c IU/mg protein
- Levels of protective enzymes (SOD, CAT, GSHPx) ([4]; caffeine-induced wake mouse, result in words, listed as Theanine): decreased, but the changes were not as great as those shown by caffeine treatment.
- Animals that failed to sleep during the 10-minute period following pentobarbital administration ([5]; 20 mg/kg per os): About 62%
- Duration of sleep ([5]; result in words): significantly increased
- Sleep latency period ([5]; result in words): significantly reduced
- Duration of sleep [5, 17]: significantly increased
- Sleep latency period [5, 17]: significantly decreased
- Time to cross the blood-brain barrier after oral administration [6]: ≤ 30 min
- REM time during the sleep cycle [7, 18]: increases
- Sleep latency [7, 18]: significantly decrease
- Sleep time [7, 18]: increase
- NREM time, chronic administration ([7]; chronic administration): significant increase
- NREM time, single doses ([7]; single doses): little effect
- Intravenous dose that could inhibit the stimulatory action of caffeine [8]: higher than 0.78 mg/kg
- Brain cell survival (Bax, Bcl-2, Caspase-3, eNOS, and iNOS, indicators of cell damage) ([9]; listed as Theanine): + Theanine: Administration of theanine caused trends toward normalization of these

Structure (SMILES): CCNC(=O)CCC(N)C(=O)O [Mg Theanate Composition, magnesium di-L-theanate]
- Time after administration at which beneficial enhancement of sleep properties was exhibited ([1]; as early as): about 30 minutes
- Number of animals falling asleep as compared to L-theanine-treated animals [1, 19]: significant increase
- Sleep duration as compared to L-theanine itself [1, 19]: significant lengthening and normalization
- Sleep latency period as compared to L-theanine itself [1, 19]: significant decrease
- Number of animals falling asleep (share of the group that fell asleep) [1, 14]: + Mg Theanate Composition: 70% of the group fell asleep
- Sleep duration period [1, 14]: + Mg Theanate Composition: The sleep duration period of about 50 minutes was greatly
- Sleep latency period [1, 14]: slightly more than 1 minute, a significantly shorter period than found in caffeine-treated minutes
- Amplitude of brain waves [2]: increased significantly and was maintained throughout the 120 minute study period. Spike
- Spike frequency of electrical activity in the brain [2]: frequency was significantly reduced and comparable to caffeine/theanine-treated animals.
- Amplitude of brain waves [2, 20]: significant increase
- Spike frequency of electrical activity in the brain [2, 20]: significant reduction
- Neurotransmitter levels (brain serotonin, dopamine, and melatonin) [3]: animals, levels of all three neurotransmitters were more significantly restored to control
- Neurotransmitter levels (brain serotonin, dopamine, and melatonin) [3, 20]: significant restoration
- Levels of protective enzymes (SOD, CAT, GSHPx) ([4]; caffeine-induced wake mouse, result in words): protective enzymes were decreased, the adverse changes were not as great as those shown by
- Level of MDA (indicator of oxidative stress) [4, 21]: decrease in oxidative stress
- Levels of protective enzymes (SOD, CAT, GSHPx) [4, 21]: restoration of brain anti-oxidant status
- Animals that fell asleep (10-minute period following pentobarbital administration) ([5]; 20 mg theanine/kg per os): over 50%
- Likelihood to fall asleep within the 10 minute limit as compared to theanine ([5]; 20 mg theanine/kg per os, result in words): significantly more likely to fall asleep
- Duration of sleep [5, 22]: significantly increased
- Sleep latency period [5, 22]: significantly reduced
- Duration of sleep [5, 23]: significantly and more effectively increased
- Sleep latency period [5, 23]: significantly and more effectively decreased
- solubility [10]: ~650 mg/mL (≈ 3730 mM)
- Storage stability [11]: stable during storage under conditions having temperatures ranging from −80 °C to +120 °C at low relative humidity; also recorded: greatest at temperatures from −80 °C to +60 °C at low relative humidity
- Adverse effects on activities during or immediately after wakefulness [12]: No adverse effects were observed
- Side effects during or after treatment [12]: No side effects were observed
- Absorption and distribution following administration ([12]; result in words): rapidly absorbed and distributed to the brain
- Brain cell survival (Bax, Bcl-2, Caspase-3, eNOS, and iNOS, indicators of cell damage) ([9]; listed as magnesium di-L-theanate): significant normalization
- GABA and other neurotransmitter receptors (receptor levels) [13]: significant diminution in the caffeine-related reduction
